Laboratory results published in PubChem BioAssay AID256 (DTP/NCI, 2004).
Values joined by “and” are separate entries in the source; they are usually repeats but may differ in a detail not shown here. Equal values may be shown once. Toxic doses and inconclusive results are not listed.

System: CD2F1 mice, L1210 leukemia ip, survival T/C
Test: NCI In Vivo Anticancer Drug Screen. Data for tumor model L1210 Leukemia (intraperitoneal) in CD2F1 (CDF1) mice
Settings: higher = longer survival
Method in brief: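 Compound-dosed mice with transplantable tumor versus matched vehicle controls; endpoint ratio T/C reported.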

[1] = endpoint: mean survival time, dose: 50.0 mg/kg/injection, schedule: Q01DX009 (ip), vehicle: saline with Tween-80
[2] = endpoint: mean survival time, dose: 100.0 mg/kg/injection, schedule: Q01DX009 (ip), vehicle: saline with Tween-80
[3] = endpoint: median survival time, dose: 50.0 mg/kg/injection, schedule: Q01DX009 (ip), vehicle: Klucel (hydroxypropylcellulose) (HPC)
[4] = endpoint: median survival time, dose: 100.0 mg/kg/injection, schedule: Q01DX009 (ip), vehicle: Klucel (hydroxypropylcellulose) (HPC)
[5] = endpoint: mean survival time, dose: 100.0 mg/kg/injection, schedule: Q04DX003 (ip), vehicle: saline with Tween-80
[6] = endpoint: mean survival time, dose: 200.0 mg/kg/injection, schedule: Q04DX003 (ip), vehicle: saline with Tween-80
[7] = endpoint: mean survival time, dose: 400.0 mg/kg/injection, schedule: Q04DX003 (ip), vehicle: saline with Tween-80
[8] = endpoint: mean survival time, dose: 100.0 mg/kg/injection, schedule: Q01DX001 (ip), vehicle: saline
[9] = endpoint: mean survival time, dose: 200.0 mg/kg/injection, schedule: Q01DX001 (ip), vehicle: saline
[10] = endpoint: mean survival time, dose: 200.0 mg/kg/injection, schedule: Q01DX009 (ip), vehicle: saline with Tween-80
[11] = endpoint: mean survival time, dose: 400.0 mg/kg/injection, schedule: Q01DX001 (ip), vehicle: saline

## CC(=O)CC(C)=O.CC(=O)CC(C)=O.O.O.[Co]
endpoint: mean survival time, dose: 22.0 mg/kg/injection, schedule: Q04DX003 (ip), vehicle: saline with Tween-80
  T/C: 111 % of control
endpoint: mean survival time, dose: 22.0 mg/kg/injection, schedule: Q04DX003 (ip), vehicle: saline
  T/C: 97 % of control
endpoint: mean survival time, dose: 33.0 mg/kg/injection, schedule: Q04DX003 (ip), vehicle: saline with Tween-80
  T/C: 114 % of control
endpoint: mean survival time, dose: 33.0 mg/kg/injection, schedule: Q04DX003 (ip), vehicle: saline
  T/C: 102 % of control
endpoint: mean survival time, dose: 50.0 mg/kg/injection, schedule: Q04DX003 (ip), vehicle: saline with Tween-80
  T/C: 109 % of control
endpoint: mean survival time, dose: 50.0 mg/kg/injection, schedule: Q04DX003 (ip), vehicle: saline
  T/C: 108 % of control

## COC(=O)c1ccccc1NC1=NCCO1
endpoint: mean survival time, dose: 200.0 mg/kg/injection, schedule: Q04DX003 (ip), vehicle: Klucel (hydroxypropylcellulose) (HPC)
  T/C: 97 % of control
endpoint: mean survival time, dose: 400.0 mg/kg/injection, schedule: Q04DX003 (ip), vehicle: Klucel (hydroxypropylcellulose) (HPC)
  T/C: 86 % of control

## O=Cc1c(O)c2ccccc2[nH]c1=O
endpoint: mean survival time, dose: 6.25 mg/kg/injection, schedule: Q01DX009 (ip), vehicle: saline with Tween-80
  T/C: 101 % of control
endpoint: mean survival time, dose: 12.5 mg/kg/injection, schedule: Q01DX009 (ip), vehicle: saline with Tween-80
  T/C: 103 % of control
endpoint: mean survival time, dose: 25.0 mg/kg/injection, schedule: Q01DX009 (ip), vehicle: saline with Tween-80
  T/C: 103 % of control
[1]
  T/C: 112 % of control
[2]
  T/C: 106 % of control
endpoint: median survival time, dose: 12.0 mg/kg/injection, schedule: Q01DX009 (ip), vehicle: Klucel (hydroxypropylcellulose) (HPC)
  T/C: 98 % of control
endpoint: median survival time, dose: 25.0 mg/kg/injection, schedule: Q01DX009 (ip), vehicle: Klucel (hydroxypropylcellulose) (HPC)
  T/C: 105 % of control
[3]
  T/C: 113 % of control
[4]
  T/C: 104 % of control

## CCCCCCCCCCCCCCCCOc1ccc(S(=O)(=O)NC(C)(C)C)cc1N
[5]
  T/C: 96 % of control
[6]
  T/C: 93 % of control
[7]
  T/C: 95 % of control

## CCOC(=O)C(C)Sc1n[nH]c(=O)[nH]c1=O (configuration not stated)
endpoint: mean survival time, dose: 12.5 mg/kg/injection, schedule: Q01DX005 (ip), vehicle: distilled water + Tween-80
  T/C: 96 % of control
endpoint: mean survival time, dose: 25.0 mg/kg/injection, schedule: Q01DX005 (ip), vehicle: distilled water + Tween-80
  T/C: 96 % of control
endpoint: mean survival time, dose: 50.0 mg/kg/injection, schedule: Q01DX005 (ip), vehicle: distilled water + Tween-80
  T/C: 96 % of control
endpoint: mean survival time, dose: 100.0 mg/kg/injection, schedule: Q01DX005 (ip), vehicle: distilled water + Tween-80
  T/C: 92 % of control
endpoint: mean survival time, dose: 200.0 mg/kg/injection, schedule: Q01DX005 (ip), vehicle: distilled water + Tween-80
  T/C: 94 % of control

## CN(C)/N=C(\CBr)c1ccccc1
endpoint: mean survival time, dose: 50.0 mg/kg/injection, schedule: Q01DX009 (ip), vehicle: saline sonified
  T/C: 96 % of control
[8]
  T/C: 102 % of control
endpoint: mean survival time, dose: 100.0 mg/kg/injection, schedule: Q01DX009 (ip), vehicle: saline sonified
  T/C: 103 % of control
[9]
  T/C: 100 % of control

## c1ccc(Cn2cc(CCc3ccncc3)c3ccccc32)cc1
[1]
  T/C: 88 % of control
[2]
  T/C: 93 % of control
[5]
  T/C: 91 % of control
[6]
  T/C: 92 % of control

## N#CC1(C2(C#N)CCCCC2)CCCCC1
endpoint: mean survival time, dose: 100.0 mg/kg/injection, schedule: Q01DX001 (ip), vehicle: Klucel (hydroxypropylcellulose) (HPC)
  T/C: 116 % of control
endpoint: mean survival time, dose: 200.0 mg/kg/injection, schedule: Q01DX001 (ip), vehicle: Klucel (hydroxypropylcellulose) (HPC)
  T/C: 92 % of control
endpoint: mean survival time, dose: 400.0 mg/kg/injection, schedule: Q01DX001 (ip), vehicle: Klucel (hydroxypropylcellulose) (HPC)
  T/C: 100 % of control

## C=CCN(C)N=Nc1ccc(C(N)=O)cc1
endpoint: mean survival time, dose: 18.75 mg/kg/injection, schedule: Q01DX009 (ip), vehicle: Klucel (hydroxypropylcellulose) (HPC)
  T/C: 106 % of control
endpoint: mean survival time, dose: 37.5 mg/kg/injection, schedule: Q01DX009 (ip), vehicle: Klucel (hydroxypropylcellulose) (HPC)
  T/C: 115 % of control
endpoint: mean survival time, dose: 150.0 mg/kg/injection, schedule: Q01DX009 (ip), vehicle: Klucel (hydroxypropylcellulose) (HPC)
  T/C: 156 % of control
endpoint: mean survival time, dose: 300.0 mg/kg/injection, schedule: Q01DX009 (ip), vehicle: Klucel (hydroxypropylcellulose) (HPC)
  T/C: 92 % of control

## O=C1CC(=Nc2ccccc2)CC(=O)N1
endpoint: mean survival time, dose: 12.5 mg/kg/injection, schedule: Q01DX009 (ip), vehicle: other
  T/C: 102 % of control
endpoint: mean survival time, dose: 25.0 mg/kg/injection, schedule: Q01DX009 (ip), vehicle: other
  T/C: 105 % of control
endpoint: mean survival time, dose: 50.0 mg/kg/injection, schedule: Q01DX009 (ip), vehicle: other
  T/C: 91 % of control
endpoint: mean survival time, dose: 100.0 mg/kg/injection, schedule: Q01DX009 (ip), vehicle: other
  T/C: 89 % of control
endpoint: mean survival time, dose: 200.0 mg/kg/injection, schedule: Q01DX009 (ip), vehicle: other
  T/C: 89 % of control

## Cc1cccc(Br)[n+]1[O-]
endpoint: mean survival time, dose: 100.0 mg/kg/injection, schedule: Q04DX003 (ip), vehicle: saline
  T/C: 92 % of control
endpoint: mean survival time, dose: 200.0 mg/kg/injection, schedule: Q04DX003 (ip), vehicle: saline
  T/C: 101 % of control

## OC(COc1ccccc1)CN1CCCCC1 (configuration not stated)
[2]
  T/C: 100 % of control
[5]
  T/C: 101 % of control
[10]
  T/C: 100 % of control
[6]
  T/C: 98 % of control
endpoint: mean survival time, dose: 400.0 mg/kg/injection, schedule: Q01DX009 (ip), vehicle: saline with Tween-80
  T/C: 102 % of control
[7]
  T/C: 98 % of control

## COc1ccccc1N1C(=O)C=CC1=O
endpoint: mean survival time, dose: 5.0 mg/kg/injection, schedule: Q04DX003 (ip), vehicle: saline with Tween-80
  T/C: 98 % of control
endpoint: mean survival time, dose: 10.0 mg/kg/injection, schedule: Q04DX003 (ip), vehicle: saline with Tween-80
  T/C: 100 % of control
endpoint: mean survival time, dose: 20.0 mg/kg/injection, schedule: Q04DX003 (ip), vehicle: saline with Tween-80
  T/C: 95 % of control

## Clc1ccc(N2CSCSC2)cc1
[1]
  T/C: 95 % of control
[2]
  T/C: 98 % of control
[10]
  T/C: 95 % of control

## Cc1ccc(S(=O)(=O)OCOS(=O)(=O)c2ccc(C)cc2)cc1
[3]
  T/C: 113 % of control
[4]
  T/C: 107 % of control and 111 % of control
endpoint: median survival time, dose: 200.0 mg/kg/injection, schedule: Q01DX009 (ip), vehicle: Klucel (hydroxypropylcellulose) (HPC)
  T/C: 122 % of control and 112 % of control
endpoint: median survival time, dose: 800.0 mg/kg/injection, schedule: Q01DX009 (ip), vehicle: Klucel (hydroxypropylcellulose) (HPC)
  T/C: 124 % of control and 103 % of control

## O=C(CCl)c1cc(Cl)c(O)c(Cl)c1
endpoint: mean survival time, dose: 50.0 mg/kg/injection, schedule: Q01DX001 (ip), vehicle: carboxymethylcellulose (CMC)
  T/C: 97 % of control

## CN=NC(C)C
[10]
  T/C: 113 % of control

## COc1ccc(C(=O)c2ncccc2C)cc1OC
endpoint: mean survival time, dose: 12.5 mg/kg/injection, schedule: Q01DX009 (ip), vehicle: water
  T/C: 94 % of control
endpoint: mean survival time, dose: 25.0 mg/kg/injection, schedule: Q01DX009 (ip), vehicle: water
  T/C: 95 % of control
endpoint: mean survival time, dose: 50.0 mg/kg/injection, schedule: Q01DX009 (ip), vehicle: water
  T/C: 94 % of control
endpoint: mean survival time, dose: 100.0 mg/kg/injection, schedule: Q01DX009 (ip), vehicle: water
  T/C: 94 % of control
endpoint: mean survival time, dose: 200.0 mg/kg/injection, schedule: Q01DX009 (ip), vehicle: water
  T/C: 88 % of control

## NCCCN1CCOCC1
[8]
  T/C: 98 % of control
[9]
  T/C: 101 % of control
[11]
  T/C: 95 % of control

## CCC1(O)C(=O)OCc2c1cc1n(c2=O)Cc2cc3ccc(CO)cc3nc2-1 (configuration not stated)
endpoint: median survival time, dose: 4.0 mg/kg/injection, schedule: Q04DX002 (ip), vehicle: saline with Tween-80
  T/C: 100 % of control
endpoint: median survival time, dose: 8.0 mg/kg/injection, schedule: Q04DX002 (ip), vehicle: saline with Tween-80
  T/C: 113 % of control
endpoint: median survival time, dose: 16.0 mg/kg/injection, schedule: Q04DX002 (ip), vehicle: saline with Tween-80
  T/C: 98 % of control
endpoint: median survival time, dose: 32.0 mg/kg/injection, schedule: Q04DX002 (ip), vehicle: saline with Tween-80
  T/C: 108 % of control

## CC(NC(=O)c1ccc(Cl)cc1Cl)c1ccccc1 (configuration not stated)
endpoint: mean survival time, dose: 75.0 mg/kg/injection, schedule: Q04DX003 (ip), vehicle: saline with Tween-80
  T/C: 101 % of control
endpoint: mean survival time, dose: 150.0 mg/kg/injection, schedule: Q04DX003 (ip), vehicle: saline with Tween-80
  T/C: 101 % of control
endpoint: mean survival time, dose: 300.0 mg/kg/injection, schedule: Q04DX003 (ip), vehicle: saline with Tween-80
  T/C: 101 % of control

## O=C(Nc1cc(Cl)c(I)cc1Cl)C(F)(F)F
[8]
  T/C: 102 % of control
[9]
  T/C: 111 % of control
[11]
  T/C: 90 % of control

## C/C(=N\N=C(/C)c1cccs1)c1cccs1
endpoint: median survival time, dose: 25.0 mg/kg/injection, schedule: Q04DX002 (ip), vehicle: saline with Tween-80
  T/C: 90 % of control
endpoint: median survival time, dose: 50.0 mg/kg/injection, schedule: Q04DX002 (ip), vehicle: saline with Tween-80
  T/C: 90 % of control
endpoint: median survival time, dose: 100.0 mg/kg/injection, schedule: Q04DX002 (ip), vehicle: saline with Tween-80
  T/C: 100 % of control
endpoint: median survival time, dose: 200.0 mg/kg/injection, schedule: Q04DX002 (ip), vehicle: saline with Tween-80
  T/C: 90 % of control
